In patent US10221163B2 (priority 2015, dated 2019):
Where two headings read alike, the source gives them in different places.

What was measured:
VIM-1 = VIM-1 (Pseudomonas aeruginosa (strain ATCC 15692 / DSM 22644 / CIP 104116 / JCM 14847 / LMG 12228 / 1C / PRS 101 / PAO1), UniProt A0A0F7KYQ8); assay: biochemical; conditions: CCF2-FA substrate, 30 pM enzyme, 2 hours at 25° C.
Summary of the method: (§1)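 Fluorescence assay of metallo-β-lactamase activity using CCF2-FA, a cephalosporin-linked 7-hydroxycoumarin–fluorescein substrate. Inhibitor, enzyme and substrate were incubated together for 2 hours at 25° C. IC50 came from a 4-parameter fit of inhibition versus inhibitor concentration.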

[1] = tested on: Serratia marcescens expressing IMP-1 (CL5741); type: cell-based; conditions: for Serratia marcescens expressing IMP-1 (CL5741) MITC95: with imipenem 1 μg/ml, 95% inhibition of bacterial growth; for Serratia marcescens MITC95: IMP-1 strain CL5741, with imipenem 1 μg/ml, 95% inhibition of growth
Summary of the method: (§2)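 Growth by absorbance after 22–24 h at 35°C defined the read-out, with imipenem fixed at 1 μg/ml alongside compound. Inocula came from overnight blood-agar colonies at 35°C, resuspended in saline and diluted 1:100 in 1.1×CAMHB.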

[2] = tested on: Escherichia coli expressing NDM-1 (CLB30005, CLB30016); type: cell-based; conditions: with imipenem 1 μg/ml; for Escherichia coli expressing NDM-1 (CLB30016) MITC95: 95% inhibition of bacterial growth; for Escherichia coli MITC95: NDM-1 strain, 95% inhibition of growth
Summary of the method: as §2

[3] = tested on: Klebsiella pneumoniae expressing VIM-1 (IHMA599644); type: cell-based; conditions: for Klebsiella pneumoniae expressing VIM-1 (IHMA599644) MITC95: with imipenem 1 μg/ml, 95% inhibition of bacterial growth; for Klebsiella pneumoniae MITC95: VIM-1 strain IHMA599644, with imipenem 1 μg/ml, 95% inhibition of growth
Summary of the method: as §2

[4] = tested on: Pseudomonas aeruginosa efflux+ (MB9798), IMP-1; type: cell-based; parameters: Concentration of metallo-β-lactamase inhibitor which restores susceptibility of efflux + (MB9798) strain to imipenem: unit not given here; conditions: C, D serine β-lactamase inhibitor closely related to relebactam; for P. aeruginosa expressing IMP-1, efflux + (MB9798) MITC95: concentration restoring susceptibility to imipenem at 2 μg/mL in the presence of a class A; for Concentration of metallo-β-lactamase inhibitor which restores susceptibility of efflux + (MB9798) strain to imipenem: imipenem at 2 μg/mL, in the presence of a class A
Summary of the method: (§3)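 Steps: add fixed imipenem and/or ceftazidime (usually CLSI breakpoint) and fixed AmpC-directed class A/C inhibitor to microbroth MIC wells; titrate MBL inhibitor; record concentration regaining susceptibility for each PAO1-derived strain; divide efflux+ by efflux− value.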

IMP-1 = IMP-1 (Serratia marcescens, UniProt P52699); assay: biochemical; type: biochemical; conditions: fluorescence assay, CCF2-FA substrate, 2 pM enzyme, 2 hours at 25° C.; read-out: IMP-1 IC50
Sequence of IMP-1 (P52699 whole entry, looked up, species assumed): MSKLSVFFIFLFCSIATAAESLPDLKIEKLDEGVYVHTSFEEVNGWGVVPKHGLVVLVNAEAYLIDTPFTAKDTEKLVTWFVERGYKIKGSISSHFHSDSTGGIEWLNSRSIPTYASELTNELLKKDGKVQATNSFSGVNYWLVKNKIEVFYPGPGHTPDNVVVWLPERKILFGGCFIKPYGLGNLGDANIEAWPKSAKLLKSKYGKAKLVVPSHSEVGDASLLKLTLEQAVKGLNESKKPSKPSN
Summary of the method: as §1

NDM-1 = NDM-1 (Klebsiella pneumoniae, UniProt C7C422); assay: biochemical; type: biochemical; conditions: fluorescence assay, CCF2-FA substrate, 1 pM enzyme, 2 hours at 25° C.; read-out: NDM-1 IC50
Sequence of NDM-1 (C7C422 whole entry, looked up, species assumed): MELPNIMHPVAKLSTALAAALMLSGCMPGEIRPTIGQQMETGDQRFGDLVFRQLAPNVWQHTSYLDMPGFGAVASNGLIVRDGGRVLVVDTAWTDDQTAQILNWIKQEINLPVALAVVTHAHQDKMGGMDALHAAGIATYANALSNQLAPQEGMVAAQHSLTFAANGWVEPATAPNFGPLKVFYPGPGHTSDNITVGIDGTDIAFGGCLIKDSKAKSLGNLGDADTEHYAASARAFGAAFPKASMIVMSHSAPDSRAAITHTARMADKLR
Summary of the method: as §1

[5] = tested on: Pseudomonas aeruginosa MB9798 vs MB9799
Summary of the method: as §3

[6] = tested on: Pseudomonas aeruginosa efflux− (MB9799), IMP-1; type: cell-based; conditions: C, D serine β-lactamase inhibitor closely related to relebactam; for P. aeruginosa expressing IMP-1, efflux − (MB9799) MITC95: concentration restoring susceptibility to imipenem at 2 μg/mL in the presence of a class A; for Concentration of metallo-β-lactamase inhibitor which restores susceptibility of efflux − (MB9799) strain to imipenem: imipenem at 2 μg/mL, in the presence of a class A
Summary of the method: as §3

[7] = fluorescence assay, read-out: VIM-1 IC50
[8] = ratio MITC95 PA_9798/MITC95 PA_9799
[9] = fold difference between efflux+ (MB9798) and efflux− (MB9799) strains, imipenem at 2 μg/mL

| Structure (SMILES) | IC50 (VIM-1; [7]) [nM] | Serratia marcescens expressing IMP-1 (CL5741) MITC95 [1] [µM] | Escherichia coli expressing NDM-1 (CLB30016) MITC95 [2] [µM] | Klebsiella pneumoniae expressing VIM-1 (IHMA599644) MITC95 [3] [µM] | P. aeruginosa expressing IMP-1, efflux + (MB9798) MITC95 [4] [µM] | IC50 (IMP-1) [nM] | IC50 (NDM-1) [nM] | Efflux ratio [5, 8] | P. aeruginosa expressing IMP-1, efflux − (MB9799) MITC95 [6] [µM] | IC50 (VIM-1; VIM-1 IC50, fluorescence assay) [nM] | Serratia marcescens MITC95 [1] [µM] | Escherichia coli MITC95 [2] [µM] | Klebsiella pneumoniae MITC95 [3] [µM] | Concentration of metallo-β-lactamase inhibitor which restores susceptibility of efflux + (MB9798) strain to imipenem [4] | Efflux ratio [5, 9] | Concentration of metallo-β-lactamase inhibitor which restores susceptibility of efflux − (MB9799) strain to imipenem [6] |
| --- | --- | --- | --- | --- | --- | --- | --- | --- | --- | --- | --- | --- | --- | --- | --- | --- |
| NCCNS(=O)(=O)c1ccc(-c2cccc3[nH]nnc23)c(-c2nn[nH]n2)c1S(N)(=O)=O [Example 236] | 0.13 | 0.7813 | 3.125 | 1.563 | 0.7813 | 0.544 | 0.0647 | 1.00 | 0.7813 |  |  |  |  |  |  |  |
| NC1CCC(c2ccc(S(N)(=O)=O)c(S(N)(=O)=O)c2-c2nnn[nH]2)CC1 (stereo not drawn) [Example 165, 4-(4-aminocyclohexyl)-3-(1H-tetrazol-5-yl)benzene-1,2-disulfonamide] |  | 1.563 | 0.3906 | 3.125 | 6.25 | 24.4 | 17.7 | 4.00 | 1.563 | 1.17 |  |  |  |  |  |  |
| C[C@@H](N)CNS(=O)(=O)c1ccc(-c2ccc3nccn3c2)c(-c2nn[nH]n2)c1S(N)(=O)=O [Example 423] |  |  |  |  |  | 1.15 | 0.303 |  |  | 0.18 | 0.7813 | 0.3906 | 1.563 | 3.125 | 4.00 | 0.7813 |
| NC[C@H](CO)NS(=O)(=O)c1ccc(-c2cccnc2N)c(-c2nn[nH]n2)c1S(N)(=O)=O [Example 215, (R)-N1-(1-amino-3-hydroxypropan-2-yl)-4-(2-aminopyridin-3-yl)-3-(2H-tetrazol-5-yl)benzene-1,2-disulfonamide] | 0.222 | 0.3906 | 0.1953 | 3.125 | 1.563 | 2.12 | 0.175 | 1.00 | 1.563 |  |  |  |  |  |  |  |
| N[C@@H]1C=C(c2ccc(S(=O)(=O)N[C@@H]3CCNC3)c(S(N)(=O)=O)c2-c2nn[nH]n2)CCC1 [Example 340, (S)-5′-amino-N4-((R)-pyrrolidin-3-yl)-2-(2H-tetrazol-5-yl)-2′,3′,4′,5′-tetrahydro-[1,1′-biphenyl]-3,4-disulfonamide] |  |  |  |  | 6.25 | 46.7 | 6.29 | 4.00 | 1.563 | 2.89 | 1.563 | 0.3906 | 0.7813 |  |  |  |
| COc1ccnc(CNS(=O)(=O)c2ccc(-c3cccc4sc(N)nc34)c(-c3nnn[nH]3)c2S(N)(=O)=O)n1 [Example 34, 4-(2-amino-1,3-benzothiazol-4-yl)-N1-[(4-methoxypyrimidin-2-yl)methyl]-3-(1H-tetrazol-5-yl)benzene-1,2-disulfonamide] | 0.329 | 6.25 | 25 | 50 | 25 | 0.429 | 0.0816 | 4.00 | 6.25 |  |  |  |  |  |  |  |
| Cc1cc(-c2ccc(S(=O)(=O)NC[C@H](O)CN)c(S(N)(=O)=O)c2-c2nn[nH]n2)cnc1N [Example 477, (R)—N1-(3-amino-2-hydroxypropyl)-4-(6-amino-5-methylpyridin-3-yl)-3-(2H-tetrazol-5-yl)benzene-1,2-disulfonamide] | 0.132 |  |  |  |  | 0.842 | 0.28 |  |  |  | 0.7813 | 0.1953 | 1.563 | 1.563 | 2.00 | 0.7813 |
| NCCNS(=O)(=O)c1ccc(-c2ccc3ncn(CCN)c3c2)c(-c2nn[nH]n2)c1S(N)(=O)=O [Example 348, N^1-(2-aminoethyl)-4-(1-(2-aminoethyl)-1H-benzo[d]imidazol-6-yl)-3-(2H-tetrazol-5-yl)benzene-1,2-disulfonamide] | 0.536 |  |  |  | 3.125 | 3.33 | 1.47 | 4.00 | 0.7813 |  | 1.563 | 1.563 | 1.563 |  |  |  |
| NS(=O)(=O)c1ccc(-c2cccc3cn[nH]c23)c(-c2nn[nH]n2)c1S(N)(=O)=O [Example 3, 4-(1H-indazol-7-yl)-3-(2H-tetrazol-5-yl)benzene-1,2-disulfonamide] | 0.258 | 1.563 | 3.125 | 6.25 | 3.125 | 0.233 | 0.151 | 2.00 | 1.563 |  |  |  |  |  |  |  |
| NC[C@@H](N)CNS(=O)(=O)c1ccc(-c2cccc3ccc(N)nc23)c(-c2nn[nH]n2)c1S(N)(=O)=O [Example 376, (R)-4-(2-aminoquinolin-8-yl)-N1-(2,3-diaminopropyl)-3-(2H-tetrazol-5-yl)benzene-1,2-disulfonamide] |  |  |  |  | 1.563 | 0.273 | 0.0551 | 1.00 | 1.563 | 0.274 | 3.125 | 0.7813 | 3.125 |  |  |  |
